{
  "source": "patent US20250236589A1",
  "about": "“THERAPEUTIC PHENETHYLAMINE COMPOSITIONS AND METHODS OF USE” (Cybin IRL Limited, priority 2022, published 2025)",
  "key": {"[1]": {"target": "T1, 5-HT2A receptor (Homo sapiens (Human), UniProt P28223)", "assay": "5-HT2A functional assay, TRUPATH (BRET)", "type": "cell-based", "description": "(§1) After incubation, cells were lysed and fluorescence acceptor and donor were added. FRET was measured after 60 min at room temperature using a microplate reader (Envision, Perkin Elmer). TRUPATH assays followed a similar workflow, except that different reagents were used, and LiCl was not included in the samples; the protocol was based on the report by Olsen, R. H. J. et al., cited above."}, "[2]": {"target": "T2, human 5-HT2B receptor (Homo sapiens (Human), UniProt P41595)", "T2 sequence (P41595 whole entry, looked up)": "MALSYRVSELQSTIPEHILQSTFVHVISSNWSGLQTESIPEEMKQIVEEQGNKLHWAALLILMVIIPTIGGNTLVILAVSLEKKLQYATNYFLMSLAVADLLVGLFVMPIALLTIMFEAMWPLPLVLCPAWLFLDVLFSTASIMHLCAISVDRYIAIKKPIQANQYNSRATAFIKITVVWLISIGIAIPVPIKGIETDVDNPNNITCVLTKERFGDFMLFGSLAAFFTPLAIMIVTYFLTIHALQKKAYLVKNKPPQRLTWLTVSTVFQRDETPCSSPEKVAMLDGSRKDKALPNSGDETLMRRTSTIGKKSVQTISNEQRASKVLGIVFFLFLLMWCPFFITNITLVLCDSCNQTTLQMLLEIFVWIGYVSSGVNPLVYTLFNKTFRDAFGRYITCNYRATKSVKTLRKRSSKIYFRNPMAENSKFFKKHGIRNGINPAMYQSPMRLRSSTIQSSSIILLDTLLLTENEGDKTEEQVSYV", "assay": "5-HT2B radioligand competition binding ([3H]LSD)", "settings": "read-out: 5-HT2B, Ki; radioligand [3H]LSD"}, "[3]": {"target": "T1, 5-HT2A receptor", "assay": "5-HT2A radioligand competition binding ([3H]LSD or [3H]ketanserin)"}, "[4]": {"target": "T2, human 5-HT2B receptor", "assay": "5-HT2B functional assay, IP1 (IPOne)", "type": "cell-based", "description": "(§2) 5-HT2A,2B,2C receptor-mediated Gq activation—canonical signaling pathways—[phosphoinositide hydrolysis leading to the production of inositol phosphate 1 (IP1, IPOne, Cisbio assay) or direct G-protein activation using TRUPATH technology]were measured as previously described (Porter, R. H. P., Benwell, K. R., Lamb, H., Malcolm, C. S., Allen, N. F., Revell, D. F., Adams, D. R. and Sheardown, M. J., 1999, Functional characterization of agonists at recombinant human 5-HT2a, 5HT2b and 5-HT2c receptors in CHO-K1 cells, Brit J Pharmacol 128, 13; Olsen, R. H. J., DiBerto, J. F., English, J. G. et al. TRUPATH, an open-source biosensor platform for interrogating the GPCR transducerome. […] Briefly, for the IPOne assay, for 5-HT2ARs, CHO-K1 or HEK-293 cells were incubated with test articles and 5-HT (positive control) in stimulation buffer containing LiCl. After incubation, cells were lysed and fluorescence acceptor and donor were added. FRET was measured after 60 min at room temperature using a microplate reader (Envision, Perkin Elmer). TRUPATH assays followed a similar workflow, except that different reagents were used, and LiCl was not included in the samples; the protocol was based on the report by Olsen, R. H. J. et al., cited above."}, "[5]": {"test_system": "mice", "assay": "Head-twitch response (HTR) screening in mice", "type": "in vivo, mouse", "description": "Protocols were followed according to Canal C E, Morgan D. Head-twitch response in rodents induced by the hallucinogen 2,5-dimethoxy-4-iodoamphetamine: a comprehensive history, a re-evaluation of mechanisms, and its utility as a model. […] Mice were housed in standard laboratory cages with ad libitum access to food and water and were acclimated to the vivarium for at least one week prior to testing in a procedure room. In a typical experiment, mice were injected 3 mg/kg of test article subcutaneously. Mice were placed immediately thereafter in a clear, polycarbonate box (46×20×20 cm), and HTRs were counted at various time points after administration using hand-held tally counters. In a separate experiment, plasma and brain samples were collected at 15 and 160 minutes after administration of test compounds to measure plasma and brain concentrations. Quantification was performed using LC-MS/MS method (LLOQ, 9 nM)."}, "[6]": {"target": "T1, 5-HT2A receptor", "assay": "5-HT2A functional assay, IP1 (IPOne)", "type": "cell-based", "settings": "for Emax: relative to 5-HT", "description": "as §1"}, "[7]": {"target": "T3, 5-HT2C receptor (Homo sapiens (Human), UniProt P28335)", "T3 sequence (P28335 whole entry, looked up)": "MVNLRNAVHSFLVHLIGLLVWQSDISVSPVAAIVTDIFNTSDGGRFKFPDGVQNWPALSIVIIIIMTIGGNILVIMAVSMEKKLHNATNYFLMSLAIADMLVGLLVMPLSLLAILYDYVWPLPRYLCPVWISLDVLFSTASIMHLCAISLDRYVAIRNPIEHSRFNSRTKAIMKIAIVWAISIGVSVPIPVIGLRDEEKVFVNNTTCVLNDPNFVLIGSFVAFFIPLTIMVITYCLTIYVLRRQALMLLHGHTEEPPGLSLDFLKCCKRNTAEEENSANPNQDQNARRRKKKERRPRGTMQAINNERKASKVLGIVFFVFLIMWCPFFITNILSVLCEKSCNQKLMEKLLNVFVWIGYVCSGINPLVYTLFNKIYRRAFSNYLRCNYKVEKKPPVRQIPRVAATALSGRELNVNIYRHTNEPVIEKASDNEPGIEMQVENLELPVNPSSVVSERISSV", "assay": "5-HT2C radioligand competition binding ([3H]mesulergine or [3H]LSD)"}, "[8]": {"target": "T3, 5-HT2C receptor", "assay": "5-HT2C functional assay, TRUPATH (BRET)", "type": "cell-based", "description": "as §2"}, "[9]": {"assay": "In vitro liver microsome stability (RLM)", "type": "in vitro ADME", "settings": "rat, rat liver microsomes, 0.5 mg/mL microsomes, NADPH, read-out: RLM, t1/2", "description": "In vitro stability was determined in Human (HLM), Rat (RLM), Mouse (MsLM), and dog (DLM) Liver Microsomes. All liver microsomes were purchased from a commercial supplier (e.g. XenoTech). The reaction mixture, minus NADPH, was prepared as described below. The test compound was added into the reaction mixture at a final concentration of 1 μM or co-dosed with their deuterated analog(s) at 1 μM each. The control compound, testosterone, was run simultaneously with the test compound in a separate reaction. The reaction mixture (without cofactor) was equilibrated in a shaking water bath at 37° C. for 5 minutes. The reaction was initiated by the addition of the cofactor, and the mixture was incubated in a shaking water bath at 37° C. Aliquots (150 μL) were withdrawn at 0, 5, 10, 20, 30, 60, and 120 minutes. Test compound and testosterone samples were immediately combined with 150 μL of ice-cold acetonitrile (ACN) containing 0.1% formic acid and internal standard to terminate the reaction. The samples were then mixed and centrifuged to precipitate proteins. All samples were assayed by LC-MS/MS using electrospray ionization. The peak area response ratio (PARR) of analyte to internal standard at each time point was compared to the PARR at time 0 to determine the percent remaining at each time point. Half-lives were calculated using GraphPad software, fitting to a single-phase exponential decay equation."}, "[10]": {"target": "MAO-A (Homo sapiens (Human), UniProt P21397)", "sequence (P21397 whole entry, looked up)": "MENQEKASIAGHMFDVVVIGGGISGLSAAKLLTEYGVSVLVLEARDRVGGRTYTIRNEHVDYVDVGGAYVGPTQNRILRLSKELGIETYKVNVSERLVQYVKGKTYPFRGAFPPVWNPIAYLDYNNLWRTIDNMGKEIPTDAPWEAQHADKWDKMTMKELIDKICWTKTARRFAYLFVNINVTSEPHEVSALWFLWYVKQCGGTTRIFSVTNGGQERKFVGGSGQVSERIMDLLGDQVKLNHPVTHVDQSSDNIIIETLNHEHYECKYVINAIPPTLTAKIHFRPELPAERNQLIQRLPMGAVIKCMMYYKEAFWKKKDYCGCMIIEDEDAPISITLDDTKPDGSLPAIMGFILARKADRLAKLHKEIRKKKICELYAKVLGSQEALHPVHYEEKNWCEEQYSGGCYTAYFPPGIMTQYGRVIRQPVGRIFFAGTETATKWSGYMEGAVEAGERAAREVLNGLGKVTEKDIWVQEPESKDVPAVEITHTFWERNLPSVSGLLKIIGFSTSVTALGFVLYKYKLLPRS", "assay": "Recombinant human MAO-A activity (stability)", "type": "in vitro ADME", "settings": "hrMAO 0.02 mg/mL, read-out: MAO-A, t1/2", "description": "hrMAO-A and MAO control were purchased from XenoTech. The reaction mixture was prepared as described below. The test compound was added into the reaction mixture at a final concentration of 1 μM or co-dosed with their deuterated analog at 1 μM each. The positive control kynuramine (25 μM) was run simultaneously with the test compound in a separate reaction. The reaction mixture (without test compounds or kynuramine) was equilibrated in a shaking water bath at 37° C. for 5 minutes. The reaction was initiated by the addition of the test compound or kynuramine, and the mixture was incubated in a shaking water bath at 37° C. Aliquots (150 μL) of the test compound reaction mixture were withdrawn at 0, 5, 10, 20, 30, 60, and 120 minutes. Aliquots (150 μL) of the positive control reaction mixture were withdrawn at 0 and 30 minutes. Test compound(s) and kynuramine samples were immediately combined with 150 μL of ice-cold 100% acetonitrile containing 0.1% formic acid and internal standard (0.2 μM metoprolol) to terminate the reaction. The samples were then mixed and centrifuged to precipitate proteins. All samples were assayed by LC-MS/MS. The peak area response ratio (PARR) of analyte to internal standard at each time point was compared to the PARR at time 0 to determine the percent remaining at each time point. Half-lives were calculated using GraphPad software, fitting to a single-phase exponential decay equation."}, "[11]": {"target": "5-HT1A receptors (Homo sapiens (Human), UniProt P08908)", "assay": "5-HT1A radioligand binding ([3H]8-OH-DPAT)", "description": "In another series of 5-HT1A,2A,2B radioligand competition binding assays, the conditions were as follows: For 5-HT1A assays, cell membrane homogenates (˜30 μg protein) derived from HEK-293 cells expressing human 5-HT1ARs were incubated with 0.5 nM [^3H]8-hydroxy-2-(di-n-propylamino)tetralin ([^3H]8-OH-DPAT) for 60 min at room temperature in the presence or absence of the test article. Non-specific binding was determined in the presence of 10 μM 8-OH-DPAT. Samples were then analyzed as described above, with only immaterial differences. […] Samples were then analyzed as described above."}, "[12]": {"assay": "Plasma and brain concentrations after dosing in mice (screening)", "type": "in vivo, mouse", "settings": "mouse; for concentration at 15 min / concentration at 160 min: sc, mice, 3 mg/kg s.c."}, "[13]": {"settings": "read-out: 5-HT2A, Ki, radioligand [3H]LSD"}, "[14]": {"settings": "read-out: 5-HT2A, Ki, radioligand [3H]ketanserin"}, "[15]": {"settings": "read-out: 5-HT2C, Ki, radioligand [3H]mesulergine"}},
  "note": "Values joined by “and” are separate entries in the source; they are usually repeats but may differ in a detail not shown here. Identical values can stand only once. Like-named read-outs stand apart in the source and are kept apart here. Marks after values point to notes of the source that are not given here.",
  "data": [
    {"smiles": "COc1cc(SC(F)(F)F)c(OC)cc1CCNCC1CC1", "note": "[Compound V-1, N-(cyclopropylmethyl)-2-(2,5-dimethoxy-4-((trifluoromethyl)thio)phenyl)ethan-1-amine]", "values": [
      {"measurement": "EC50", "setting": "[1]", "value": 0.028, "unit": "µM"},
      {"measurement": "Emax", "setting": "[1]; TRUPATH, relative to 5-HT", "value": 75, "unit": "%"},
      {"measurement": "Ki", "setting": "[2]", "value": 0.079, "unit": "µM"},
      {"measurement": "Ki", "setting": "[3]; [13]", "value": 0.01, "unit": "µM"},
      {"measurement": "Ki", "setting": "[3]; read-out: 5-HT2AR affinity (Ki)", "value": 0.01, "unit": "µM"},
      {"measurement": "Emax", "setting": "[4]; IP1 assay, constrained to 100%", "value": 100, "unit": "%"},
      {"measurement": "EC50", "setting": "[4]; IP1 assay, read-out: 5-HT2B EC50", "value": "> 1", "unit": "µM"},
      {"measurement": "HTR (in words)", "setting": "[5]; 3 mg/kg", "value": "elicited an HTR to a much lower extent than DOI"},
      {"measurement": "HTR 15-25 min", "setting": "[5]; calculated using 0-30 min", "value": "3 ####"},
      {"measurement": "HTR 160-170 min", "setting": "[5]; mice, 3 mg/kg s.c.", "value": 4.42},
      {"measurement": "5-HT2AR agonist activity (in words)", "setting": "[6]", "value": "potent 5-HT2AR agonist"},
      {"measurement": "EC50", "setting": "[6]; 5-HT2A EC50, IP1 assay", "value": "0.035 µM and 0.0357 µM"},
      {"measurement": "Emax", "setting": "[6]; IP1 assay", "value": 31, "unit": "%"},
      {"measurement": "Ki", "setting": "[7]", "value": 0.0749, "unit": "µM"},
      {"measurement": "Ki", "setting": "[7]; read-out: 5-HT2C, Ki, [3H]LSD, high-affinity active state", "value": 0.00098, "unit": "µM"},
      {"measurement": "EC50", "setting": "[8]", "value": 0.046, "unit": "µM"},
      {"measurement": "Emax", "setting": "[8]; relative to 5-HT", "value": 92, "unit": "%"}
    ]},
    {"smiles": "[2H]C([2H])(N)Cc1cc(OC)c(C(F)(F)F)cc1OC", "note": "[IV-3, 2-(2,5-dimethoxy-4-(trifluoromethyl)phenyl)ethan-1,1-d2-1-amine]", "values": [
      {"measurement": "half-life at 1 μM", "setting": "[9]", "value": 11.1, "unit": "min"},
      {"measurement": "Ki", "setting": "[3]; [14]", "value": 0.042, "unit": "µM"},
      {"measurement": "Ki", "setting": "[7]; [15]", "value": 0.023, "unit": "µM"},
      {"measurement": "half-life at 1 μM", "setting": "[10]", "value": 102, "unit": "min"}
    ]},
    {"smiles": "COc1cc(C(F)(F)F)c(OC)cc1CCN", "note": "[Reference Compound 4, 2-(2,5-dimethoxy-4-(trifluoromethyl)phenyl)ethan-1-amine, reference compound]", "values": [
      {"measurement": "half-life at 1 μM", "setting": "[9]", "value": 7.7, "unit": "min"},
      {"measurement": "Ki", "setting": "[3]; [14]", "value": 0.025, "unit": "µM"},
      {"measurement": "Ki", "setting": "[7]; [15]", "value": 0.035, "unit": "µM"},
      {"measurement": "half-life at 1 μM", "setting": "[10]", "value": 87.7, "unit": "min"}
    ]},
    {"smiles": "COc1cc(SC(F)F)c(OC)cc1CCN", "note": "[Compound I-8, 2-(4-((difluoromethyl)thio)-2,5-dimethoxyphenyl)ethan-1-amine]", "values": [
      {"measurement": "inhibition at 0.1 µM", "setting": "[11]; 100 nM", "value": 38, "unit": "%"},
      {"measurement": "inhibition at 1 µM", "setting": "[11]; 1 uM", "value": 84, "unit": "%"},
      {"measurement": "affinity at 5-HT2A receptors (in words)", "setting": "[3]", "value": "high affinity"},
      {"measurement": "Ki", "setting": "[3]; [13]", "value": 0.0063, "unit": "µM"},
      {"measurement": "EC50", "setting": "[4]", "value": 0.0679, "unit": "µM"},
      {"measurement": "Emax", "setting": "[4]; IP1 assay, relative to 5-HT", "value": 87, "unit": "%"},
      {"measurement": "concentration at 15 min", "setting": "[12]; brain, read-out: Brain 15 min", "value": 1900, "unit": "nM"},
      {"measurement": "concentration at 160 min", "setting": "[12]; brain, read-out: Brain, 160 min", "value": 2200, "unit": "nM"},
      {"measurement": "Kp at 160 min", "setting": "[12]; brain/plasma, subcutaneous, 3 mg/kg, 160 min after 3 mg/kg, read-out: brain/plasma ratio, 160 min", "value": 74},
      {"measurement": "concentration at 15 min", "setting": "[12]; plasma, read-out: Plasma, 15 min", "value": 300, "unit": "nM"},
      {"measurement": "concentration at 160 min", "setting": "[12]; plasma, read-out: Plasma, 160 min", "value": 30, "unit": "nM"},
      {"measurement": "HTR 15-25 min", "setting": "[5]; mice, 3 mg/kg s.c.", "value": 33.4},
      {"measurement": "HTR 160-170 min", "setting": "[5]; mice, 3 mg/kg s.c.", "value": 17.4},
      {"measurement": "EC50", "setting": "[6]", "value": 0.0053, "unit": "µM"},
      {"measurement": "2A/2B EC50 Selectivity", "setting": "[6]; IP1 assay", "value": 12.8},
      {"measurement": "Emax", "setting": "[6]; IP1 assay", "value": 99, "unit": "%"}
    ]}
  ]
}
